According to patent US6426367B1, “Methods for selectively occluding blood supplies to neoplasias” (EFA Sciences LLC, priority 1999, dated 2002):
Read-outs that look alike come from different tables or passages of the source.

Columns and labels:
tumor cells = conditions: cited from earlier work; for differential cytotoxic effect, tumor cells versus normal cells: well defined culture conditions
tumor-feeding vessels = system: tumor-feeding vessels
Experimental: (§1) Studies were conducted in 5 human patients with stage 4 neoplastic disease. Two of the patients had primary hepatoma (patients 1 and 2), two had giant cell tumor of the bone (patients 3 and 4) and one had renal cell carcinoma (patient 5).
(§2) The lithium salt of GLA was obtained from Scotia Pharmaceuticals, U.K. The PUFA salt was dissolved in sterile saline, sterile phosphate buffered saline (PBS, pH 7.4) or dilute ethanol in saline (final concentration <0.02% ethanol). The final concentration of PUFA in these solutions was approximately 25%. The PUFA solution was mixed with an iodized lymphographic oil (LIPIODOL ULTRA FLUIDE®, Laboratoire Guerbet, Paris, France), in a ratio of between 1:1.5 and 1:3 (volume/volume). In some cases, the PUFA was modified by covalent conjugation (e.g., amide bond) to the iodized lymphographic oil. In other cases the PUFA salt was unmodified, and was diluted directly into the lymphographic agent without conjugation. The PUFA and lymphographic oil mixture was prepared under sterile conditions immediately prior to use.
(§3) Patients were admitted into the hospital for the study. A proximal artery suppling a major portion of the blood supply to the tumor was identified. Catheterization of the major artery from which the proximal artery arises was performed under local anaesthesia. In patients 1 and 2 (with hepatomas), the tip of the catheter was positioned in the right hepatic artery via the right femoral artery. In patient 3 (with giant cell tumor of the right lower end of the femur), the tip of the catheter was positioned in the right femoral/popliteal artery. In patient 4 (with giant cell tumor of the left scapula), the tip of the catheter was positioned in the left subdlavian/axillary arteries. In patient 5 (with left kidney tumor), the tip of the catheter was positioned in the left renal artery. Conjugated PUFA salt was prepared fresh, just prior to injection. Radiographic and CT scan examinations were performed immediately after the injection and at periodic intervals in all the five patients.
(§4) In order to determine how the arterial supply to the tumor tissue was influenced by the injection of PUFA salt, angiography was performed and recorded during and immediately after the procedure, and at periodic intervals thereafter.
(§5) Patients 1 and 2 with hepatoma were administered total doses of 1.6 gm and 0.75 gm respectively (the dose refers to the amount of Li-GLA) of PUFA salt into the right hepatic artery through the right femoral route. Patient 3, with giant cell tumor of the lower end of the right femur, underwent right femoral artery catheterization and the tip of the catheter was positioned in the popliteal artery to deliver 500 mg of PUFA salt. Patient 4, who had giant cell tumor of the left scapula, received PUFA salt by selective cannulation of the left subdlavian artery, through the femoral route, from which the tumor-feeding vessel was arising and was given 660 mg of PUFA salt. Patient 5, with renal tumor, received 750 mg of PUFA salt through the right femoral route into the left renal artery from which the tumor-feeding vessels were arising. In all the patients, the administration of PUFA salt was done as swiftly as possible. During the administration of PUFA salt, the vital signs of each patient were monitored.

[1] = system: stage 4 neoplastic disease (hepatoma, giant cell tumor of the bone, renal cell carcinoma)
Experimental: as §1, §2, §3
as §5, with “Patient 5, with renal tumor, received 750 mg of PUFA salt through the right femoral route into the left renal artery from which the tumor-feeding vessels were arising. In all the patients, the administration of PUFA salt was done as swiftly as possible.” left out

[2] = Experimental: as §3, §5
[3] = system: normal arteries including the celiac, subclavian and popliteal arteries
Experimental: Moreover, in several other patients, a PUFA was injected into normal arteries including the celiac, subclavian and popliteal arteries.
as §4

human gliomas = conditions: direct intra-tumoral administration; cited from earlier work
[4] = patient 4, seven and a half years after injection

CCCCC/C=C\C/C=C\C/C=C\C/C=C\CCCC(=O)O [AA, arachidonic acid]
differential cytotoxic effect, tumor cells versus normal cells (tumor cells): marked differential cytotoxic effect

CC/C=C\C/C=C\C/C=C\C/C=C\C/C=C\C/C=C\CCC(=O)O [DHA, docosahexaenoic acid]
differential cytotoxic effect, tumor cells versus normal cells (tumor cells): marked differential cytotoxic effect

CCCCC/C=C\C/C=C\C/C=C\CCCCC(=O)[O-].[Li+] [PUFA salt, lithium salt of GLA]
occlusion of the tumor-feeding vessels following PUFA salt injection (tumor-feeding vessels; all 5 patients, intra-arterial, 0.5-1.6 gm Li-GLA mixed with or conjugated to LIPIODOL): total occlusion of the tumor-feeding vessels | speed of occlusion of tumor-feeding vessels (tumor-feeding vessels; all types of tumor-feeding vessels, irrespective of size): almost instantaneously | occlusion of tumor-feeding vessels in third angiogram (tumor-feeding vessels; patient 1, hepatoma, 1 week after second dose (0.5 gm), 11th day after first dose): almost complete occlusion | tumor blush in repeat angiogram (tumor-feeding vessels; patient 1, hepatoma, 4 days after first dose): much reduced | tumor-feeding vessels visible on repeat angiogram (tumor-feeding vessels; patient 1, hepatoma, 28 days after injection): no tumor-feeding vessels could be seen | tumor-feeding vessels occluded following the first injection (tumor-feeding vessels; patient 1, hepatoma, first dose 1.1 gm, right hepatic artery): More than 50% | timing of occlusion of tumor-feeding vessels (tumor-feeding vessels; patient 2, hepatoma): essentially simultaneously with the injection | occlusion of tumor-feeding vessels immediately after injection (tumor-feeding vessels; patient 2, hepatoma, 750 mg, right hepatic artery): complete occlusion | state of occluded tumor-feeding vessels in repeat angiogram (tumor-feeding vessels; patient 3, 10 days after injection): remained closed | occlusion of tumor-feeding vessels immediately after injection (tumor-feeding vessels; patient 3, giant cell tumor of right femur, 500 mg, femoral/popliteal artery): Complete occlusion | occlusion of tumor-feeding vessels immediately after administration (tumor-feeding vessels; patient 4, giant cell tumor of left scapula, 660 mg, left subclavian artery): Complete occlusion | state of tumor-feeding vessels in follow-up angiogram (tumor-feeding vessels; [4]): still occluded | occlusion of tumor-feeding arteries (tumor-feeding vessels; patient 5, renal cell carcinoma, 750 mg, renal artery): Complete occlusion | weight gain after injection ([1]; patient 1, hepatoma, 6 months following the injection): > 10 kgs | reduction in the size of the hepatoma ([1]; patient 1, one month after the first injection): More than 50% | state of the tumor mass at follow-up [1, 4]: completely calcified | survival after injection ([1]; patient 5, advanced renal cell carcinoma with secondary tumors): 3 months | side-effects due to the therapy ([2]; all 5 patients): no significant side-effects | tolerability of the treatment ([2]; all 5 patients): tolerated the treatment well | biochemical tests after administration ([2]; all patients): normal | side-effect observed ([2]; during and immediately after the injection): mild feeling of warmth followed by pain at the site of the tumor | time until pain subsided ([2]; patient 2, mild to moderate pain in the hepatic region, NSAIDs given): 24 to 48 h | occlusion of normal arteries feeding the normal lower pole of the kidney ([3]; patient 5, 750 mg, renal artery): without any occlusion | occlusion of normal vasculature feeding non-neoplastic tissues ([3]; patients treated with PUFA salt, angiograms): No occlusion | spasms or occlusions of normal arteries after injection ([3]; several other patients, injection into celiac, subclavian and popliteal arteries): no spasms or occlusions

CC/C=C\C/C=C\C/C=C\C/C=C\C/C=C\CCCC(=O)O [EPA, eicosapentaenoic acid]
differential cytotoxic effect, tumor cells versus normal cells (tumor cells): marked differential cytotoxic effect

CCCCC/C=C\C/C=C\C/C=C\CCCCC(=O)O [GLA, gamma-linolenic acid]
effect on human gliomas (human gliomas): can regress human gliomas | side-effects (human gliomas): without significant side-effects | selectivity of tumoricidal action in mixed culture (tumor cells; normal and tumor cells grown together): more selective tumoricidal action compared to AA and EPA | differential cytotoxic effect, tumor cells versus normal cells (tumor cells): marked differential cytotoxic effect
